Assay results from patent publication US20060286132A1, “Use of stellate ganglion block for the treatment of sexual dysfunction” (priority 2005, published 2006).

Legend:
[1] = tested on: sexual dysfunction, including anorgasmia; test: Sexual function after stellate ganglion block in a person with sexual dysfunction including anorgasmia; assay type: in vivo
[2] = tested on: severe menopausal hot flashes; test: Self-reported hot flashes pre and post stellate ganglion block in women with severe menopausal hot flashes; assay type: in vivo
Excerpt: A stellate ganglion block is illustratively performed by placing the patient in the supine position (on the back) with the neck slightly extended and the jaw open. While the patient is usually conscious for the procedure, a medication such as Versed (midazolam hydrochloride), fentanyl, or other sedative is often administered, to relax the patient. A local anesthetic is also usually administered, to numb the skin and tissue down to the ganglion nerve. A needle is inserted toward the stellate ganglion. […] The needle 20 is shown inserted adjacent to the stellate ganglion 10. In the illustrative block, a contrast solution is injected through needle 20 via syringe 22, and the needle position is confirmed by fluoroscopy or other means, as are known in the art.
The anesthetic 30 is then delivered next to stellate ganglion 10 by injection via needle 20. Illustratively, 5 cc 0.375% Marcaine® (bupivacaine) may be used. However, it is understood that other anesthetics, illustratively lidocaine, morphine or other opioids, clonidine, botox, or tetracine, or a combination of anesthetic and epinephrine, may be used and that the dosage range may vary depending on the particular anesthetic and other factors, as are known in the art. Needle 20 is removed, and the patient is optionally placed in the sitting position to facilitate the spread of anesthesia inferiorly to the stellate ganglion. Illustratively, longer acting anesthetics such as bupivacaine are used, but other anesthetics may be used, as are known in the art. The stellate ganglion block may also be performed by radiofrequency lesioning, as is known in the art.
Six women suffering from severe menopausal hot flashes each received a standard stellate ganglion block (0.375% Marcaine, 5 cc), as described above. Hot flashes were assessed by self-reporting pre and post stellate ganglion block.

SMILES: CCCCN1CCCCC1C(=O)Nc1c(C)cccc1C (stereo not drawn) [Marcaine, bupivacaine]
- sexual function with additional stellate ganglion blocks ([1]; additional blocks over the course of 3 years): maintain normal sexual function
- sexual function following stellate ganglion block ([1]; person, block in accordance with Example 1): return of normal sexual function
- effect on sexual dysfunction, block administered through C7 ([1]; variation in treatment: administration of the stellate ganglion block through C7): ineffective
- success of initial stellate ganglion block, as evidenced by a positive Homer's syndrome and anhydrosis ([2]; 0.375% Marcaine, 5 cc, six women, initial block): successful in all six subjects
- duration of complete alleviation of hot flashes ([2]; initial stellate ganglion block, 0.375% Marcaine, 5 cc, six women): 2-5 weeks
- additional asymptomatic period of relief from hot flashes ([2]; second stellate ganglion block, after mild hot flashes returned): 4-18 weeks
